pIC50, pKi: −log10 of the molar value.
Key:
Aurora B = target: T1, Aurora B (Homo sapiens, UniProt Q96GD4); assay: Aurora B enzyme inhibition (time-resolved fluorescence, histone H3 peptide); assay type: biochemical; settings: 1 mM ATP
T1 construct: Active Aurora B enzyme (recombinant residues 1-344)
How it was run: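 Recombinant Aurora B (residues 1-344) with GST-INCENP phosphorylated biotinylated histone H3 (1-21) peptide at 1 mM ATP in HEPES pH 7.4 with MgCl2, orthovanadate and Triton X-100 for 1 h. After EDTA stop, the phosphopeptide was detected by TR-FRET (Eu-cryptate anti-phospho-H3 / SA-APC, 665/615 nm ratio). IC50 from an exponential fit.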

NCI-H1299 cells = assay: Induction of polyploidy in H1299; assay type: cell-based, Human; settings: Homo sapiens; NCI-H1299, 48 hours; read-out: EC15 (concentration of inhibitor necessary to induce polyploidy in 15% of cells)
How it was run: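 NCI-H1299 cells in RPMI 1640/10% FCS were treated with inhibitor concentrations in duplicate for 48 h at 37 C, then formalin-fixed and Hoechst-stained. Nuclear area was measured by high-content imaging, with polyploid (≥4N) defined as >750 μ^2. EC15 was derived by least-squares fit of log dose-response.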

KDR = KDR (Homo sapiens, UniProt P35968); assay: KDR cellular assay (KDR receptor phosphorylation ELISA); assay type: cell-based; set-up: expressed in transfected cells; host or cells: 3T3 (embryonic mouse) cells; settings: KDR transfected 3T3 (embryonic mouse) cells, VEGF stimulated; read-out: IC50 inhibition of KDR phosphorylation
How it was run: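 KDR-transfected mouse 3T3 cells treated 20 min at 37° C with half-log compound dilutions, then stimulated 10 min with VEGF (100 ng/ml solution). Lysates captured on anti-KDR plates; phosphorylation by biotin antibody/streptavidin-HRP ELISA at 450 nm. IC50 by non-linear regression.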

T1 sequence (Q96GD4 whole entry, the tested form may be a part): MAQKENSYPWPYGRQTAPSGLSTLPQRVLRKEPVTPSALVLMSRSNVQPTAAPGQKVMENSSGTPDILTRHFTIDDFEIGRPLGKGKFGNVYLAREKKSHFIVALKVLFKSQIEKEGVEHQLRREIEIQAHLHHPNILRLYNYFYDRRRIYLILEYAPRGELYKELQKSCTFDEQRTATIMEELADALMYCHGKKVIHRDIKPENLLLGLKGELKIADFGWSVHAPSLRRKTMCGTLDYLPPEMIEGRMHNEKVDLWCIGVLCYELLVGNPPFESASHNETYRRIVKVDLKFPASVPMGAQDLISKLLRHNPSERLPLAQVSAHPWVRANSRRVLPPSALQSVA
T1 sequence (Q9NQS7 826-918 partner limits assumed): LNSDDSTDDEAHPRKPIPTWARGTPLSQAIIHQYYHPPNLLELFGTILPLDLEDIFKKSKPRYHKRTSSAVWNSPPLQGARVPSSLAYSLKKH
KDR, sequence (P35968 20-1356): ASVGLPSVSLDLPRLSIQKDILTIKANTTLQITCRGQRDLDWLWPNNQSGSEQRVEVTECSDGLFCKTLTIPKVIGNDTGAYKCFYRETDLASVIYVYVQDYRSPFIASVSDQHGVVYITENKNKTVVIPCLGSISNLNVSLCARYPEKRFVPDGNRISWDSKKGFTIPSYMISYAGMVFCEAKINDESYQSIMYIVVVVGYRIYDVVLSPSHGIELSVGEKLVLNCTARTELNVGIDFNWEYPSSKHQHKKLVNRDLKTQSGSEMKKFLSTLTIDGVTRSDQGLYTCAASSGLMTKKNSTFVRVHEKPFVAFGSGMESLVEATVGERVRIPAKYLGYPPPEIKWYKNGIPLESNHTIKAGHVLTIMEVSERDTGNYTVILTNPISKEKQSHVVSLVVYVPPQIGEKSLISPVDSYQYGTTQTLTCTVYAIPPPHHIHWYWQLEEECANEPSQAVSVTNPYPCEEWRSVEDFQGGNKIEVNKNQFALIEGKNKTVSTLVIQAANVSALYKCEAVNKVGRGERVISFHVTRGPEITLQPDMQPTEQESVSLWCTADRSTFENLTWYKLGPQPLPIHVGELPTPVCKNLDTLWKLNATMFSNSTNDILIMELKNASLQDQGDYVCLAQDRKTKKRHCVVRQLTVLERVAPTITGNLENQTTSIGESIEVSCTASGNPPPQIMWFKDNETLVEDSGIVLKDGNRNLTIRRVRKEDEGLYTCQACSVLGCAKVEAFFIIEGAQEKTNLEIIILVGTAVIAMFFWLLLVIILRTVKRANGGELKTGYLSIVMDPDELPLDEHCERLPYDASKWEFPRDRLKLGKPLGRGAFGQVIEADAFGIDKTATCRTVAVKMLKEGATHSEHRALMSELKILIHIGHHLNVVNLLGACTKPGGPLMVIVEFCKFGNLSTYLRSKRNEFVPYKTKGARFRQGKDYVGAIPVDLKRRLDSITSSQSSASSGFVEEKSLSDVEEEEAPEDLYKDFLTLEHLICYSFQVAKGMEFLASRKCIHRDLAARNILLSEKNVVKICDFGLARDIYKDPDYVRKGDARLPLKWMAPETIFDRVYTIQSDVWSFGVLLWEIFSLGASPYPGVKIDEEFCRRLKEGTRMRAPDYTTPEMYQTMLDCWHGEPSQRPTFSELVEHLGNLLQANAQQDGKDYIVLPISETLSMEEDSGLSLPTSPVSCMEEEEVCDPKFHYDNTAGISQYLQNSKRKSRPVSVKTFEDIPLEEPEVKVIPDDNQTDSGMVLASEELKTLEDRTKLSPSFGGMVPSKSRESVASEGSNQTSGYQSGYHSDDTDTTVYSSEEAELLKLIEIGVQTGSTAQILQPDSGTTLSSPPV

Row | SMILES | pKi (Aurora B) | EC15 (NCI-H1299 cells) [µM] | pIC50 (KDR)
1 | CN1CCN(CCn2cc(Nc3ncc(Br)c(N[C@H]4[C@@H](C(N)=O)[C@@H]5C=C[C@H]4C5)n3)cn2)CC1 [Example 94, (1S,2S,3R,4R)-3-{[5-bromo-2-({1-[2-(4-methylpiperazin-1-yl)ethyl]-1H-pyrazol-4-yl}amino)pyrimidin-4-yl]amino}bicyclo[2.2.1]hept-5-ene-2-carboxamide] | > 7.00 | < 0.1 | > 7.00
2 | NC(=O)[C@@H]1[C@H](Nc2nc(Nc3cnn(C4CCNCC4)c3)ncc2Br)[C@H]2C=C[C@@H]1C2 [Example 95, (1S,2S,3R,4R)-3-[(5-bromo-2-{[1-(piperidin-4-yl)-1H-pyrazol-4-yl]amino}pyrimidin-4-yl)amino]bicyclo[2.2.1]hept-5-ene-2-carboxamide] | > 7.00 | 0.1 to 1 | > 7.00
3 | COCCn1cc(Nc2ncc(Cl)c(N[C@H]3[C@@H](C(N)=O)[C@@H]4C=C[C@H]3C4)n2)cn1 [Example 96, (1S,2S,3R,4R)-3-[(5-chloro-2-{[1-(2-methoxyethyl)-1H-pyrazol-4-yl]amino}pyrimidin-4-yl)amino]bicyclo[2.2.1]hept-5-ene-2-carboxamide] | > 7.00 | 0.1 to 1 | > 7.00

Source: US8426408B2, “Pyrimidine inhibitors of kinases” (AbbVie Inc., priority 2009, dated 2013)
